{"source": "paper PMC5603227", "about": "(ChemMedChem, 2017)", "key": {"[1]": {"tested_on": "Mycobacterium tuberculosis H37Rv", "assay": "Microplate alamar blue assay", "assay_type": "cell-based"}, "HepG2 cells": {"tested_on": "HepG2 cells", "assay": "cells", "assay_type": "cell-based, human"}, "[2]": {"tested_on": "Mtb H37Rv in infected THP-1 cells", "assay": "Intracellular activity in infected THP-1 cells", "assay_type": "cell-based", "conditions": "Mycobacterium tuberculosis, read-out: MIC against intracellular Mtb"}, "Mycobacterium avium": {"tested_on": "Mycobacterium avium", "assay": "MIC against non-tuberculous mycobacteria", "assay_type": "cell-based", "conditions": "read-out: MIC M. avium"}, "[3]": {"tested_on": "THP-1 human monocytic cell line", "assay": "THP-1 cytotoxicity", "conditions": "macrophage cytotoxicity relative to intracellular MIC"}, "Caco-2 cell monolayer": {"tested_on": "Caco-2 cell monolayer", "conditions": "human"}, "in vitro [4]": {"assay": "in vitro", "conditions": "plasma"}, "in vitro [5]": {"assay": "in vitro", "conditions": "human; for Papp A→B at 1 h / Papp A→B at 2 h / Papp B→A at 1 h / Papp B→A at 2 h: Caco-2; for efflux ratio: Caco-2, Caco-2 Efflux Ratio (average)"}, "in vitro [6]": {"assay": "in vitro", "conditions": "human; for microsomal CLint: s9; for half-life: s9, Human liver S9 Microsomes T ½"}, "CYP2B6": {"target": "CYP2B6 (Homo sapiens, UniProt P20813)", "sequence (P20813 whole entry)": "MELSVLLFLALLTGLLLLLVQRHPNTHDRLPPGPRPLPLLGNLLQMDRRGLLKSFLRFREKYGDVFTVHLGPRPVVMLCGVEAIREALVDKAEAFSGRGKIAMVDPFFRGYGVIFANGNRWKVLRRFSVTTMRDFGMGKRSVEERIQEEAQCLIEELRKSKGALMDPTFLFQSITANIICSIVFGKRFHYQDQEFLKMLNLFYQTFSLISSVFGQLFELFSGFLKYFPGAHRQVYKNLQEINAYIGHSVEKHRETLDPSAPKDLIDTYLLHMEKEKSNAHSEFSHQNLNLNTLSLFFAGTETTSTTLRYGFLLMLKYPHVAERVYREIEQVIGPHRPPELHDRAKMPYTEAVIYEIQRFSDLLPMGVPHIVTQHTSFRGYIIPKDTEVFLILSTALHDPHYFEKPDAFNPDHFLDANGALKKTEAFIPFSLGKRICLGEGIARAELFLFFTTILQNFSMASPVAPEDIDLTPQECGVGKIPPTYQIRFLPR", "assay": "biochemical"}, "CYP2C8": {"target": "CYP2C8 (Homo sapiens, UniProt P10632)", "sequence (P10632 whole entry)": "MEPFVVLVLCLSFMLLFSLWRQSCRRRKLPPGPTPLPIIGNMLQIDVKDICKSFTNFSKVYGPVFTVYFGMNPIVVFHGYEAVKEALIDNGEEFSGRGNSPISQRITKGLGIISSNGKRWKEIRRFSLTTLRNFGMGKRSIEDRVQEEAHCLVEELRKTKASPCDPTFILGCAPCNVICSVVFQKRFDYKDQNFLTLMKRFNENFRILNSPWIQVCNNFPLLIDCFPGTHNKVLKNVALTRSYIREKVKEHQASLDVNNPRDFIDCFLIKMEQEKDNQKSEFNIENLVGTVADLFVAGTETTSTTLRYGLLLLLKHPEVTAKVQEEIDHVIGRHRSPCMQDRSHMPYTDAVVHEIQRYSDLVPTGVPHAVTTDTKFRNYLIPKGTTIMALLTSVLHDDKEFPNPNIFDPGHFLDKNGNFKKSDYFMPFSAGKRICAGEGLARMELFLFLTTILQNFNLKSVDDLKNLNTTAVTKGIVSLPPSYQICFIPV", "assay": "biochemical"}, "CYP2C9": {"target": "CYP2C9 (Homo sapiens, UniProt P11712)", "sequence (P11712 whole entry)": "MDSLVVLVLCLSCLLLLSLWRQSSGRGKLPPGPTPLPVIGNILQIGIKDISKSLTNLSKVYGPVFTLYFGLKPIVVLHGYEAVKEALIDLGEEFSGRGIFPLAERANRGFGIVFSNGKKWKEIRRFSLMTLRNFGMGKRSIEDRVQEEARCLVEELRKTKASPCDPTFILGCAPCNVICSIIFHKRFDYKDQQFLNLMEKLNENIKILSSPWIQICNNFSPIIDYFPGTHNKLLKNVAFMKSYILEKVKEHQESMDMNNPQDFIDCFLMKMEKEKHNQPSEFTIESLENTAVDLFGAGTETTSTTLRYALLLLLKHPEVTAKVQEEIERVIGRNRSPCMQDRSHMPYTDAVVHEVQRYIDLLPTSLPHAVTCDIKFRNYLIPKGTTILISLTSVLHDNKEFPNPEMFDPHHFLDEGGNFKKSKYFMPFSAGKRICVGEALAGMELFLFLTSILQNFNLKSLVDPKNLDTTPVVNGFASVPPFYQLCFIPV", "assay": "biochemical"}, "CYP2C19": {"target": "CYP2C19 (Homo sapiens, UniProt P33261)", "sequence (P33261 whole entry)": "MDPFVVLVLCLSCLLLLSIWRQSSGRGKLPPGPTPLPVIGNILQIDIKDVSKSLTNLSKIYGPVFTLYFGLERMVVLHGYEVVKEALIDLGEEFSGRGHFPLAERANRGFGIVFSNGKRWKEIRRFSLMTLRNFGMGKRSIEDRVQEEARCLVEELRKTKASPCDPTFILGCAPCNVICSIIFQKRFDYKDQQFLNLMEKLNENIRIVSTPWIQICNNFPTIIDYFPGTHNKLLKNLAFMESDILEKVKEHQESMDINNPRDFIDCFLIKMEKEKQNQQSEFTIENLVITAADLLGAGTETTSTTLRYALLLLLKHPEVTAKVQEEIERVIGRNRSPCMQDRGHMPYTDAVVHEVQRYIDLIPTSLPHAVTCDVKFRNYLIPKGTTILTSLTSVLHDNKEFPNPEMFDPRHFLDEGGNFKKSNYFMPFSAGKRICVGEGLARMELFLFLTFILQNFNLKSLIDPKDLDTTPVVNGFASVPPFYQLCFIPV", "assay": "biochemical"}, "CYP2D6": {"target": "CYP2D6 (Homo sapiens, UniProt P10635)", "sequence (P10635 whole entry)": "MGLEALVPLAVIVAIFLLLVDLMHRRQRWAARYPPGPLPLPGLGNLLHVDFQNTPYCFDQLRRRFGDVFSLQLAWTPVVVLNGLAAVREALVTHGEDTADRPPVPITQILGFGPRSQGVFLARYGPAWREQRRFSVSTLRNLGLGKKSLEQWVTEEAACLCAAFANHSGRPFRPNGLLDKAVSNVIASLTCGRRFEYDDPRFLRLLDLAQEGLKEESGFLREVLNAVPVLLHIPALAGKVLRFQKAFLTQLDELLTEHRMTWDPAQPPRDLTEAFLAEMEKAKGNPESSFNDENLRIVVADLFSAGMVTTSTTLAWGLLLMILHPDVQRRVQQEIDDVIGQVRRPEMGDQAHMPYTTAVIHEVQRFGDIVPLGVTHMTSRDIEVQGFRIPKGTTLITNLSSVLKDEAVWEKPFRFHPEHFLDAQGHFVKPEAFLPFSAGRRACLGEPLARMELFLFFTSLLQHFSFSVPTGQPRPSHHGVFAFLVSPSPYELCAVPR", "assay": "biochemical"}, "CYP3A4": {"target": "CYP3A4 (Homo sapiens, UniProt P08684)", "sequence (P08684 whole entry)": "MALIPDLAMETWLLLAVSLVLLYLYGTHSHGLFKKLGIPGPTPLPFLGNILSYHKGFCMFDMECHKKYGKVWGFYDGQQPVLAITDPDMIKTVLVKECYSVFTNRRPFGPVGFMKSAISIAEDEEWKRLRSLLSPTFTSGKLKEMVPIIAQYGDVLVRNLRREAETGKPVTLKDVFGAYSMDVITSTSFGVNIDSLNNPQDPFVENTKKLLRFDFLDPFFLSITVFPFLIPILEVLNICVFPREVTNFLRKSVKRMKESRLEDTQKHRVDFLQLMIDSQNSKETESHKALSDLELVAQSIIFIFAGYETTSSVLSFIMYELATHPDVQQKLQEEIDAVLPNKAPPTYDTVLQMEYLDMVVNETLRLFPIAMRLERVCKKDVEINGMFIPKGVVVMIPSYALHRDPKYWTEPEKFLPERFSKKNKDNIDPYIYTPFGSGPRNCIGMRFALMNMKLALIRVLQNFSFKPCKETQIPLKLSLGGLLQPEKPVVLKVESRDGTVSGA", "assay": "biochemical", "conditions": "Cytochrome P450 Inhibition IC50 CYP3A4"}, "[7]": {"assay": "Relative aqueous solubility by turbidity in 7H9/ADC/Tween medium", "conditions": "200 μM highest concentration tested"}, "[8]": {"conditions": "Homo sapiens, HepG2, read-out: IC50 HepG2 Gal, galactose medium"}, "[9]": {"conditions": "Homo sapiens, HepG2, read-out: IC50 HepG2 Glu, glucose medium"}}, "note": "Values joined by “and” are separate entries in the source; they are usually repeats but may differ in a detail not shown here. Equal values may be shown once. Read-outs that look alike come from different tables or passages of the source."}
{"smiles": "Cc1ccn2c(C(=O)NCc3ccc(S(F)(F)(F)(F)F)cc3)c(C)nc2c1", "note": "[Compound 13, 2,7-Dimethyl-N-(4-(pentafluoro-λ^6-sulfanyl)benzyl)imidazo[1,2-a]pyridine-3-carboxamide]", "values": [{"measurement": "MIC", "setting": "[1]", "value": "< 0.1", "unit": "µM"}, {"measurement": "IC50", "setting": "HepG2 cells; [8]", "value": "> 25", "unit": "µM"}, {"measurement": "IC50", "setting": "HepG2 cells; [9]", "value": "> 25", "unit": "µM"}, {"measurement": "MIC", "setting": "[2]", "value": "< 0.01", "unit": "µM"}]}
{"smiles": "Cc1ccn2c(C(=O)NCc3cccc(S(F)(F)(F)(F)F)c3)c(C)nc2c1", "note": "[Compound 14, 2,7-Dimethyl-N-(3-(pentafluoro-λ^6-sulfanyl)benzyl)imidazo[1,2-a]pyridine-3-carboxamide]", "values": [{"measurement": "IC50", "setting": "HepG2 cells; [8]", "value": "> 25", "unit": "µM"}, {"measurement": "IC50", "setting": "HepG2 cells; [9]", "value": "> 25", "unit": "µM"}, {"measurement": "MIC", "setting": "Mycobacterium avium", "value": 200, "unit": "µM"}]}
{"smiles": "Cc1ccc2nc(C)c(C(=O)NCc3ccc(S(F)(F)(F)(F)F)cc3)n2c1", "note": "[Compound 15, 2,6-Dimethyl-N-(4-(pentafluoro-λ^6-sulfanyl)benzyl)imidazo[1,2-a]pyridine-3-carboxamide]", "values": [{"measurement": "MIC", "setting": "[1]", "value": "< 0.1", "unit": "µM"}, {"measurement": "IC50", "setting": "HepG2 cells; [8]", "value": "> 25", "unit": "µM"}, {"measurement": "IC50", "setting": "HepG2 cells; [9]", "value": "> 25", "unit": "µM"}, {"measurement": "MIC", "setting": "[2]", "value": "< 0.01", "unit": "µM"}]}
{"smiles": "Cc1ccc2nc(C)c(C(=O)NCc3cccc(S(F)(F)(F)(F)F)c3)n2c1", "note": "[Compound 16, 2,6-Dimethyl-N-(3-(pentafluoro-λ^6-sulfanyl)benzyl)imidazo[1,2-a]pyridine-3-carboxamide]", "values": [{"measurement": "MIC", "setting": "[1]", "value": "< 0.1", "unit": "µM"}, {"measurement": "IC50", "setting": "HepG2 cells; [8]", "value": "> 25", "unit": "µM"}, {"measurement": "IC50", "setting": "HepG2 cells; [9]", "value": "> 25", "unit": "µM"}]}
{"smiles": "CCc1nc2ccc(Cl)cn2c1C(=O)NCc1ccc(S(F)(F)(F)(F)F)cc1", "note": "[Compound 17, 6-Chloro-2-ethyl-N-(4-(pentafluoro-λ^6-sulfanyl)benzyl)imidazo[1,2-a]pyridine-3-carboxamide]", "values": [{"measurement": "IC50", "setting": "HepG2 cells; [8]", "value": "> 25", "unit": "µM"}, {"measurement": "IC50", "setting": "HepG2 cells; [9]", "value": "> 25", "unit": "µM"}, {"measurement": "MIC", "setting": "[2]", "value": "< 0.01", "unit": "µM"}, {"measurement": "therapeutic window", "setting": "[3]", "value": "> 100"}]}
{"smiles": "CCc1nc2ccc(Cl)cn2c1C(=O)NCc1cccc(S(F)(F)(F)(F)F)c1", "note": "[Compound 18, 6-Chloro-2-ethyl-N-(3-(pentafluoro-λ^6-sulfanyl)benzyl)imidazo[1,2-a]pyridine-3-carboxamide]", "values": [{"measurement": "IC50", "setting": "HepG2 cells; [8]", "value": "> 25", "unit": "µM"}, {"measurement": "IC50", "setting": "HepG2 cells; [9]", "value": "> 25", "unit": "µM"}, {"measurement": "Caco-2 Efflux Ratio (average)", "setting": "Caco-2 cell monolayer", "value": 3.16}, {"measurement": "fraction unbound", "setting": "in vitro [4]", "value": 0.001}, {"measurement": "Papp A→B at 1 h", "setting": "in vitro [5]", "value": 1.09, "unit": "×10⁻⁶ cm/s"}, {"measurement": "Papp A→B at 2 h", "setting": "in vitro [5]", "value": 1.99, "unit": "×10⁻⁶ cm/s"}, {"measurement": "Papp B→A at 1 h", "setting": "in vitro [5]", "value": 3.65, "unit": "×10⁻⁶ cm/s"}, {"measurement": "Papp B→A at 2 h", "setting": "in vitro [5]", "value": 5.61, "unit": "×10⁻⁶ cm/s"}, {"measurement": "efflux ratio", "setting": "in vitro [5]", "value": 3.2}, {"measurement": "microsomal CLint", "setting": "in vitro [6]", "value": 89.7, "unit": "µL/min/mg"}, {"measurement": "half-life", "setting": "in vitro [6]", "value": 25.8, "unit": "min"}, {"measurement": "IC50", "setting": "CYP2B6", "value": 8.4, "unit": "µM"}, {"measurement": "IC50", "setting": "CYP2C8", "value": 14.4, "unit": "µM"}, {"measurement": "IC50", "setting": "CYP2C9", "value": 10.4, "unit": "µM"}, {"measurement": "IC50", "setting": "CYP2C19", "value": 10.6, "unit": "µM"}, {"measurement": "IC50", "setting": "CYP2D6", "value": 6.5, "unit": "µM"}, {"measurement": "IC50", "setting": "CYP3A4", "value": "8.4 µM and > 20 µM"}]}
{"smiles": "Cc1cn2c(C(=O)NCc3ccc(S(F)(F)(F)(F)F)cc3)c(C)nc2s1", "note": "[Compound 19, 2,6-Dimethyl-N-(4-(pentafluoro-λ^6-sulfanyl)benzyl)imidazo[2,1-b]thiazole-5-carboxamide]", "values": [{"measurement": "MIC", "setting": "[1]", "value": "< 0.1", "unit": "µM"}, {"measurement": "IC50", "setting": "HepG2 cells; [8]", "value": "> 25", "unit": "µM"}, {"measurement": "IC50", "setting": "HepG2 cells; [9]", "value": "> 25", "unit": "µM"}, {"measurement": "MIC", "setting": "Mycobacterium avium", "value": 200, "unit": "µM"}, {"measurement": "Caco-2 Efflux Ratio (average)", "setting": "Caco-2 cell monolayer", "value": 0.988}, {"measurement": "Human liver S9 Microsomes T ½", "value": 13.3, "unit": "min"}, {"measurement": "fraction unbound", "setting": "in vitro [4]", "value": 0.003}, {"measurement": "Papp A→B at 1 h", "setting": "in vitro [5]", "value": 6.35, "unit": "×10⁻⁶ cm/s"}, {"measurement": "Papp A→B at 2 h", "setting": "in vitro [5]", "value": 12.1, "unit": "×10⁻⁶ cm/s"}, {"measurement": "Papp B→A at 1 h", "setting": "in vitro [5]", "value": 8.35, "unit": "×10⁻⁶ cm/s"}, {"measurement": "Papp B→A at 2 h", "setting": "in vitro [5]", "value": 8.1, "unit": "×10⁻⁶ cm/s"}, {"measurement": "efflux ratio", "setting": "in vitro [5]", "value": "< 1"}, {"measurement": "microsomal CLint", "setting": "in vitro [6]", "value": 175, "unit": "µL/min/mg"}, {"measurement": "half-life", "setting": "in vitro [6]", "value": 13.5, "unit": "min"}, {"measurement": "IC50", "setting": "CYP2B6", "value": "> 20", "unit": "µM"}, {"measurement": "IC50", "setting": "CYP2C8", "value": "> 20", "unit": "µM"}, {"measurement": "IC50", "setting": "CYP2C9", "value": 14, "unit": "µM"}, {"measurement": "IC50", "setting": "CYP2C19", "value": 13.5, "unit": "µM"}, {"measurement": "IC50", "setting": "CYP2D6", "value": 13.4, "unit": "µM"}, {"measurement": "IC50", "setting": "CYP3A4", "value": "> 20", "unit": "µM"}]}
{"smiles": "Cc1cn2c(C(=O)NCc3cccc(S(F)(F)(F)(F)F)c3)c(C)nc2s1", "note": "[Compound 20, 2,6-Dimethyl-N-(3-(pentafluoro-λ^6-sulfanyl)benzyl)imidazo[2,1-b]thiazole-5-carboxamide]", "values": [{"measurement": "IC50", "setting": "HepG2 cells; [8]", "value": 14, "unit": "µM"}, {"measurement": "IC50", "setting": "HepG2 cells; [9]", "value": "> 25", "unit": "µM"}, {"measurement": "IC50", "setting": "HepG2 cells; read-out: IC50 HepG2 Gal, galactose medium", "value": 14.1, "unit": "µM"}]}
{"smiles": "NNC(=O)c1ccncc1", "note": "[INH, Isoniazid, reference compound]", "values": [{"measurement": "MIC", "setting": "[2]", "value": 0.37, "unit": "µM"}]}
{"smiles": "CC(=O)NC[C@H]1CN(c2ccc(N3CCOCC3)c(F)c2)C(=O)O1", "note": "[LIN, linezolid, reference compound]", "values": [{"measurement": "IC50", "setting": "HepG2 cells; [8]", "value": "> 25", "unit": "µM"}, {"measurement": "IC50", "setting": "HepG2 cells; [9]", "value": "> 25", "unit": "µM"}]}
{"smiles": "CC/C(=C(/CC)c1ccc(O)cc1)c1ccc(O)cc1", "note": "[diethylstilbestrol]", "values": [{"measurement": "Aq. sol", "setting": "[7]", "value": 125, "unit": "µM"}]}
